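Values below derive from 48-hour exposures of cells grown in 96-well plates, with endpoints linearly interpolated between the two concentrations bracketing the appropriate inhibition level. GI50 marks 50% less growth. TGI marks complete inhibition of growth.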
Columns and labels:
Assay in all cases: inhibition of tumour cell growth, NCI panel, 48 h
BT-549 breast = tested on: BT-549 breast
MDA-MB-435 = tested on: MDA-MB-435
KM12 colon = tested on: KM12 colon
SNB-19 CNS = tested on: SNB-19 CNS
HT29 colon = tested on: HT29 colon
NCI-H522 lung = tested on: NCI-H522 lung
SF-539 CNS = tested on: SF-539 CNS
SNB-75 CNS = tested on: SNB-75 CNS
SF-295 CNS = tested on: SF-295 CNS
HS 578T breast = tested on: HS 578T breast

SMILES | GI50 (BT-549 breast) [µM] | TGI (BT-549 breast) [µM] | GI50 (MDA-MB-435) [µM] | TGI (MDA-MB-435) [µM] | GI50 (KM12 colon) [µM] | TGI (KM12 colon) [µM] | GI50 (SNB-19 CNS) [µM] | TGI (SNB-19 CNS) [µM] | GI50 (HT29 colon) [µM] | TGI (HT29 colon) [µM] | GI50 (NCI-H522 lung) [µM] | TGI (NCI-H522 lung) [µM] | GI50 (SF-539 CNS) [µM] | TGI (SF-539 CNS) [µM] | GI50 (SNB-75 CNS) [µM] | TGI (SNB-75 CNS) [µM] | GI50 (SF-295 CNS) [µM] | TGI (SF-295 CNS) [µM] | GI50 (HS 578T breast) [µM] | TGI (HS 578T breast) [µM]
C=C1CCC2C3(C)COC(c4ccccc4Br)OC3CCC2(C)C1C/C=C1/C(=O)OCC1OC(C)=O (stereo not drawn) | 1.7 | 3.71 | 1.48 | 3.5 | 1.55 | 3.12 | 2.25 | 5.85 | 0.804 | 2.37 | 0.604 | 2.03 | 1.53 | 2.86 | 1.17 | 2.46 | 1.82 | 4.57 | 1.89 | 4.65
COc1cc2c3c(n(C)c(=O)c2cc1OC)-c1cc2c(cc1/C3=C\C(N)CN)OCO2 (stereo not drawn) | 0.72 | 4.52 | 2.56 | 17.3 | 2.39 | 28.3 | 1.36 | > 49.3 | 2.61 | > 100 | 0.394 |  | 1.39 | 4.49 | 3.6 | > 31.3 | 1.31 | 7.79 | 4.2 | 41.4
COc1cc(C2C3=C(COC3=O)Nc3cc4c(cc32)CCC4)cc2c1OCO2 (stereo not drawn) | 0.311 | 42.2 | 0.0237 | 0.0604 | 0.0305 | 0.12 | 0.0724 | 23.3 | 0.0299 | 0.845 | 0.02 | 0.0562 | 0.0328 | 8.73 | 0.0259 | 18.8 | 0.0308 | 10.8 | 0.0425 | 21.3
Nc1n[nH]c2cccc(C#Cc3cccc(C(=O)Nc4cc(CN5CCOCC5)cc(C(F)(F)F)c4)c3)c12 | 4.33 | 18.8 | 3.46 | 15.2 | 3.43 | 14.7 | 5.23 | 20.3 | 3.13 | 16.2 | 3.62 | 16.2 | 2.4 | 12 | 5.51 | 19.3 | 3.46 | 14.2 | 2.75 | 34.1
c1ccc(CSc2nnc3c4ccccc4c4ccccc4c3n2)cc1 |  | > 100 |  | > 100 |  | > 100 |  | > 78.1 |  | > 100 |  | 97.9 |  | > 100 |  | 21.6 |  | 62.3 |  | > 100
CCCc1cc(=O)n2c(C(=O)Nc3ccccc3OC)c(C(=O)Nc3ccc(F)cc3)sc2n1 | 31 | 71.1 | 36.5 | > 160 | 49.8 | > 160 | 23.1 | 68.5 | 44.5 | > 160 | 17.7 | 68 | 16.8 | 38 | 8.72 | 35 | 19 | 61.7 | 6.27 | 25.6
O=C(CCCSc1nc(-c2ccccc2)cc(-c2ccc(Cl)cc2)n1)NO | 3.46 | 17.6 | 3.11 | 14.8 | 2.96 | 14.2 | 3.12 | 14.9 | 2.47 | 13.2 | 1.96 | 10.4 | 1.61 | 4.06 | 2.08 | 10.4 | 2.03 | 5.71 | 4.78 | 24
Nc1cc(N)c2nc(-c3ccccc3)c(NCc3ccc(F)cc3)nc2c1 | 1.69 | 3.26 | 2.01 | 3.74 | 2.82 | 7.38 | 6.68 | 20.1 | 3.19 | 12.5 | > 100 | > 100 | 1.83 | 3.54 | 2.16 | 5.06 | 3.5 | 13.6 | 4.86 | > 100
Cn1cc(-c2ccc(-c3cn(C)c4ccc(Cl)cc34)s2)c2cc(Cl)ccc21 | > 100 | > 100 | > 100 | > 100 | > 100 | > 100 | > 100 | > 100 | > 100 | > 100 | > 100 | > 100 | > 100 | > 100 | > 100 | > 100 | > 100 | > 100 | > 100 | > 100
O=C(c1cccnc1)c1cc(-c2ccccn2)c(=O)n2ccccc12 | > 100 | > 100 | > 100 | > 100 | > 100 | > 100 | > 100 | > 100 | > 100 | > 100 | > 100 | > 100 | > 100 | > 100 | > 100 | > 100 | > 100 | > 100 | > 100 | > 100
Cc1ccc2c(c1)C(=O)c1c-2n(CCCBr)c(=O)c2cc([N+](=O)[O-])ccc12 | > 100 | > 100 | > 100 | > 100 | > 100 | > 100 | 47.9 | > 100 | 62.8 | > 100 | 12.2 | 96.2 | > 100 | > 100 | 48.1 | > 100 | 73.8 | > 100 | > 100 | > 100
COc1cc(C2CC(c3ccc(N(C)C)cc3)=NN2C(C)=O)cc(OC)c1OC (stereo not drawn) | 2.53 | > 100 | 0.231 | 1.18 | 0.933 | > 52.8 |  | > 100 | 0.909 | > 39.5 | 1.95 | > 27.1 | 1.35 | 5.34 | 1.43 | > 100 | 0.374 | > 100 | 0.441 | 3.03
O=C(N/N=C/c1cc([N+](=O)[O-])ccc1O)c1cccc2ccccc12 | 1.63 | 23.7 | 7.18 | > 100 | 4.66 | > 100 | 7.65 | > 100 | 5.74 | > 100 | 3.47 | 22 | 3.8 | 24.2 | 6.2 | 44.7 | 2.77 | 20.9 | 12.8 | > 100
CS(=O)(=O)Nc1ccc(N=Cc2c(O)[nH]c3ccccc23)cc1 | > 25 | > 25 | > 25 | > 25 | 1.2 | > 25 | > 25 | > 25 | > 25 | > 25 | > 25 | > 25 | > 25 | > 25 | > 25 | > 25 | > 25 | > 25 | > 25 | > 25

Reference: PubChem BioAssay (NCI)
